Results taken from patent US12226520B2, “Self-fueled particles for propulsion through flowing aqueous fluids” (The University of British Columbia, priority 2013, dated 2025).

What was measured:
flowing plasma = assay: Clotting and occlusion of plasma flowing through a glass capillary tube; type: biochemical
Procedure: To show propelling thrombin particles clotting flowing plasma, particles were applied to the bottom of plasma flowing through a glass capillary tube (FIG. 3D,E). A microfluidic system was used to control the flow of plasma, and monitor the flow to determine when clotting occluded flow in the capillary tube. At flow velocities between 0.006 and 3.4 mm/s, the background occlusion times in the system were approximately 30 min. […] At high flows, the clot was easily pushed out and the flow of plasma resumed. […] The particles propelled upwards, against flow, and accumulated high within the tubing. Clotting was seen to initiate at regions with the highest concentration of particles.

[1] = system: platelet-poor blood plasma; assay: Clot initiation in a 25 mm column of non-flowing platelet-poor blood plasma; type: biochemical
Procedure: Thr-CaCO3 was mixed at a 1:1 mass ratio with TXA-NH3^+ to yield a propelling particle mixture. A non-propelling mixture consisted of a 1:1 ratio of Thr-CaCO3 with lyophilized TXA-NH2. The ability of the two mixtures to initiate clotting in platelet-poor blood plasma was measured and compared against addition of a similar amount of thrombin (approximately 1 pmol) in HEPES buffer and a control receiving no treatment.
The ability of particles to clot both at the site of application and below the site was assessed by injecting particles near the top of a column of plasma that was 25 mm tall. Initiation of clotting was measured both at the top and the bottom of the column by monitoring the formation of fibrin. The blood plasma was laced with green-fluorescent beads in order to monitor movement and formation of solid fibrin mesh and clot initiation. Clotting at the top was measured visually, and when the plasma became opaque or appeared gelled, clotting was confirmed by gentle manipulation with a micropipette.
Both propelling and non-propelling particles immediately clotted plasma at the top of the column, which was detected within 2 min. The same response occurred when a solution containing an equivalent amount of dissolved thrombin was added. However, there were much larger differences in the clot times at the bottom of the columns of plasma between these samples.
Clotting took about 30 min, as the clot needed to propagate down through the column by diffusion. Clotting at the bottom was faster using non-propelled particles, occurring in 3.7 min as compared to 10 min for the propelled particles. […] Most propelled particles reacted and produced gas at the top so only a fraction of the particles sank to the bottom yielding a slightly slower clot time compared to non-propelling particles. Although the propelled particles out-performed the thrombin solution in this assay, a particular advantage for the propelling particles would come from an ability to propel though flowing solutions.

thrombin [thrombin solution]
flow velocity up to which occlusion occurred (flowing plasma): up to 0.06 mm/s | occlusion versus controls at 0.6 mm/s (flowing plasma; flow velocity 0.6 mm/s): no difference from controls | acceleration of clot initiation at the bottom compared to the control ([1]; bottom of 25 mm column): no acceleration of clot initiation | clot time at the bottom of the column ([1]; bottom of 25 mm column, non-flowing plasma): about 30 min | clot time at the top of the column ([1]; site of application, non-flowing plasma): same response
